“Also recorded” adds a separate entry of the source. Active and inactive are the calls of the source. The rule behind the calls is not given here.
Test system: CCRIS mutagenicity, Ames/micronucleus/aberration tests
Assay: CCRIS mutagenicity studies
[1] = Test System: AMES SALMONELLA TYPHIMURIUM, Strain/Indicator: TA98, Metabolic Activation: NONE, Method: PREINCUBATION
[2] = Test System: AMES SALMONELLA TYPHIMURIUM, Strain/Indicator: TA100, Metabolic Activation: NONE, Method: PREINCUBATION
[3] = Test System: AMES SALMONELLA TYPHIMURIUM, Strain/Indicator: TA1535, Metabolic Activation: NONE, Method: PREINCUBATION
[4] = Test System: AMES SALMONELLA TYPHIMURIUM, Strain/Indicator: TA98, Metabolic Activation: NONE, Method: STANDARD PLATE
[5] = Test System: AMES SALMONELLA TYPHIMURIUM, Strain/Indicator: TA100, Metabolic Activation: NONE, Method: STANDARD PLATE
[6] = Test System: AMES SALMONELLA TYPHIMURIUM, Strain/Indicator: TA1537, Metabolic Activation: NONE, Method: PREINCUBATION
[7] = Test System: AMES SALMONELLA TYPHIMURIUM, Strain/Indicator: TA102, Metabolic Activation: NONE, Method: PREINCUBATION

Measured: mutagenic call

O=c1c2ccc3c4c(ccc(c24)c2nc4ccccc4n12)c(=O)n1c2ccccc2nc31
inactive: Test System: AMES SALMONELLA TYPHIMURIUM, Strain/Indicator: TA97, Metabolic Activation: HAMSTER, LIVER, S-9, AROCLOR 1254 (10%), Method: PREINCUBATION inactive; negative | Test System: AMES SALMONELLA TYPHIMURIUM, Strain/Indicator: TA97, Metabolic Activation: RAT, LIVER, S-9, AROCLOR 1254 (10%), Method: PREINCUBATION inactive; negative | Test System: AMES SALMONELLA TYPHIMURIUM, Strain/Indicator: TA98, Metabolic Activation: RAT, LIVER, S-9, AROCLOR 1254 (10%), Method: PREINCUBATION inactive; negative | Test System: AMES SALMONELLA TYPHIMURIUM, Strain/Indicator: TA100, Metabolic Activation: HAMSTER, LIVER, S-9, AROCLOR 1254 (10%), Method: PREINCUBATION inactive; negative | [2] inactive; negative | Test System: AMES SALMONELLA TYPHIMURIUM, Strain/Indicator: TA100, Metabolic Activation: RAT, LIVER, S-9, AROCLOR 1254 (10%), Method: PREINCUBATION inactive; negative | Test System: AMES SALMONELLA TYPHIMURIUM, Strain/Indicator: TA1535, Metabolic Activation: HAMSTER, LIVER, S-9, AROCLOR 1254 (10%), Method: PREINCUBATION inactive; negative | [3] inactive; negative | Test System: AMES SALMONELLA TYPHIMURIUM, Strain/Indicator: TA1535, Metabolic Activation: RAT, LIVER, S-9, AROCLOR 1254 (10%), Method: PREINCUBATION inactive; negative
active: Test System: AMES SALMONELLA TYPHIMURIUM, Strain/Indicator: TA97, Metabolic Activation: NONE, Method: PREINCUBATION active; positive | Test System: AMES SALMONELLA TYPHIMURIUM, Strain/Indicator: TA98, Metabolic Activation: HAMSTER, LIVER, S-9, AROCLOR 1254 (10%), Method: PREINCUBATION active; positive | [1] active; positive

CCCCCc1ccco1
inactive: Test System: CHINESE HAMSTER V-79, Strain/Indicator: V-79 (HPRT)/6-THIOGUANINE, Metabolic Activation: NONE, Method: STANDARD PLATE inactive; negative | Test System: CHINESE HAMSTER V-79, Strain/Indicator: V-79 (HPRT)/6-THIOGUANINE, Metabolic Activation: RAT LIVER S-9, Method: STANDARD PLATE inactive; negative

C=C1CC[C@H]2[C@@H](c3c(C)c(O)c4c(c31)C(=O)[C@@H](C)C4)C2(C)C
inactive: [4] inactive; negative | Test System: AMES SALMONELLA TYPHIMURIUM, Strain/Indicator: TA98, Method: STANDARD PLATE inactive; negative | [5] inactive; negative | Test System: AMES SALMONELLA TYPHIMURIUM, Strain/Indicator: TA100, Method: STANDARD PLATE inactive; negative

Nc1nccc2[nH]c3ccccc3c12
active: [6] active; positive

O=C(OCCBr)C(=O)OCCBr
active: [5] active; positive | Test System: AMES SALMONELLA TYPHIMURIUM, Strain/Indicator: TA100, Metabolic Activation: RAT, LIVER, S-9, AROCLOR 1254, Method: STANDARD PLATE active; positive

CCN(CC)c1ccc2c(-c3ccc(S(=O)(=O)O)cc3S(=O)(=O)[O-])c3ccc(=[N+](CC)CC)cc-3oc2c1
active: Test System: AMES SALMONELLA TYPHIMURIUM, Strain/Indicator: TA98, Metabolic Activation: HAMSTER, LIVER, S-9, AROCLOR 1254 (10%), Method: STANDARD PLATE active; positive | Test System: AMES SALMONELLA TYPHIMURIUM, Strain/Indicator: TA98, Metabolic Activation: RAT, LIVER, S-9, AROCLOR 1254 (10%), Method: STANDARD PLATE active; positive | Test System: MOUSE LYMPHOMA, Strain/Indicator: L5178Y (TK+/TK-), Metabolic Activation: RAT, LIVER, S-9, AROCLOR 1254, Method: SUSPENSION/PLATE active; positive
inactive: End Point: IN VIVO MICRONUCLEUS, Test System: BONE MARROW POLYCHROMATIC ERYTHROCYTES, Species: MOUSE, Strain/Sex: DDY/MALE, Route: IP inactive; negative | [4] inactive; negative | Test System: AMES SALMONELLA TYPHIMURIUM, Strain/Indicator: TA100, Metabolic Activation: HAMSTER, LIVER, S-9, AROCLOR 1254 (10%), Method: STANDARD PLATE inactive; negative | [5] inactive; negative | Test System: AMES SALMONELLA TYPHIMURIUM, Strain/Indicator: TA100, Metabolic Activation: RAT, LIVER, S-9, AROCLOR 1254 (10%), Method: STANDARD PLATE inactive; negative | Test System: AMES SALMONELLA TYPHIMURIUM, Strain/Indicator: TA1538, Metabolic Activation: NONE, Method: STANDARD PLATE inactive; negative | Test System: AMES SALMONELLA TYPHIMURIUM, Strain/Indicator: TA1538, Metabolic Activation: RAT, LIVER, S-9, AROCLOR 1254, Method: STANDARD PLATE inactive; negative | Test System: MOUSE LYMPHOMA, Strain/Indicator: L5178Y (TK+/TK-), Metabolic Activation: NONE, Method: SUSPENSION/PLATE inactive; negative

Nc1c2ccccc2nc2ccc(O)cc12
active: [6] active; positive

OCC1CCCO1 (configuration not stated)
inactive: [1] inactive; negative | Test System: AMES SALMONELLA TYPHIMURIUM, Strain/Indicator: TA98, Metabolic Activation: RAT, LIVER, S-9, AROCLOR 1254, Method: PREINCUBATION inactive; negative | [2] inactive; negative | Test System: AMES SALMONELLA TYPHIMURIUM, Strain/Indicator: TA100, Metabolic Activation: RAT, LIVER, S-9, AROCLOR 1254, Method: PREINCUBATION inactive; negative | [7] inactive; negative | Test System: AMES SALMONELLA TYPHIMURIUM, Strain/Indicator: TA102, Metabolic Activation: RAT, LIVER, S-9, AROCLOR 1254, Method: PREINCUBATION inactive; negative

CC(C)(C)CC(C)(C)c1ccc(O)cc1
active: End Point: In vitro chromosomal aberrations, Test System: Chinese hamster lung (CHL/IU) cells, Metabolic Activation: Rat, Liver, S9, Phenobarbital and 5,6-benzoflavone active; positive (structural changes and ploidy). toxic at 0.06 mg/ml.
inactive: End Point: In vitro chromosomal aberrations, Test System: Chinese hamster lung (CHL/IU) cells, Metabolic Activation: None inactive; negative. toxic at 0.04 mg/ml; also recorded: inactive; negative. toxic at 0.030 and 0.036 mg/ml | [1] inactive; negative | Test System: AMES SALMONELLA TYPHIMURIUM, Strain/Indicator: TA98, Metabolic Activation: RAT LIVER S-9, PHENOBARBITAL AND BETA-NAPHTHOVLAVONE, Method: PREINCUBATION inactive; negative | [2] inactive; negative | Test System: AMES SALMONELLA TYPHIMURIUM, Strain/Indicator: TA100, Metabolic Activation: RAT LIVER S-9, PHENOBARBITAL AND BETA-NAPHTHOFLAVONE, Method: PREINCUBATION inactive; negative | [7] inactive; negative | Test System: AMES SALMONELLA TYPHIMURIUM, Strain/Indicator: TA102, Metabolic Activation: RAT LIVER S-9, PHENOBARBITAL AND BETA-NAPHTHOFLAVONE, Method: PREINCUBATION inactive; negative | Test System: AMES SALMONELLA TYPHIMURIUM, Strain/Indicator: TA104, Metabolic Activation: NONE, Method: PREINCUBATION inactive; negative | Test System: AMES SALMONELLA TYPHIMURIUM, Strain/Indicator: TA104, Metabolic Activation: RAT LIVER S-9, PHENOBARBITAL AND BETA-NAPHTHOFLAVONE, Method: PREINCUBATION inactive; negative | [3] inactive; negative | Test System: AMES SALMONELLA TYPHIMURIUM, Strain/Indicator: TA1535, Metabolic Activation: RAT LIVER S-9, PHENOBARBITAL AND BETA-NAPHTHOFLAVONE, Method: PREINCUBATION inactive; negative | [6] inactive; negative | Test System: AMES SALMONELLA TYPHIMURIUM, Strain/Indicator: TA1537, Metabolic Activation: RAT LIVER S-9, PHENOBARBITAL AND BETA-NAPHTHOFLAVONE, Method: PREINCUBATION inactive; negative | Test System: E. COLI, Strain/Indicator: WP2UVRA/PKM101, Metabolic Activation: NONE, Method: PREINCUBATION inactive; negative | Test System: E. COLI, Strain/Indicator: WP2UVRA/PKM101, Metabolic Activation: RAT LIVER S-9, PHENOBARBITAL AND BETA-NAPHTHOFLAVONE, Method: PREINCUBATION inactive; negative | Test System: E. COLI, Strain/Indicator: WP2UVRA, Metabolic Activation: NONE, Method: PREINCUBATION inactive; negative | Test System: E. COLI, Strain/Indicator: WP2UVRA, Metabolic Activation: RAT LIVER S-9, PHENOBARBITAL AND BETA-NAPHTHOFLAVONE, Method: PREINCUBATION inactive; negative
